Laboratory results: patent publication US9145392B2, “Imidazole amines as modulators of kinase activity” (Merck Patent GmbH, priority 2011, dated 2015)

Tests used:
P70S6K (T412E mutant) = P70S6K (T412E mutant) (Homo sapiens (Human), UniProt P23443, T412E); assay: P70S6K enzyme assay; type: biochemical; conditions: read-out: IC50 p70S6K
Procedure: P70S6K inhibitor compounds are diluted and plated in 96 well plates. […] The reaction is incubated for 90 min at 25° C., before the addition of 10 mM EDTA to stop the reaction. The proportion of substrate and product (phosphorylated) peptide is analysed on a Caliper Life Sciences Lab Chip 3000, using a pressure of −1.4 psi, and upstream and downstream voltages of −3000 and −700 respectively. Product peaks are resolved before substrate peaks on the resulting chromatograms.

His-AKT (Full Length) = His-AKT (Full Length) (Homo sapiens (Human), UniProt P31749); assay: AKT enzyme assay; type: biochemical; conditions: read-out: IC50 AKT
Sequence of His-AKT (Full Length) (P31749 whole entry): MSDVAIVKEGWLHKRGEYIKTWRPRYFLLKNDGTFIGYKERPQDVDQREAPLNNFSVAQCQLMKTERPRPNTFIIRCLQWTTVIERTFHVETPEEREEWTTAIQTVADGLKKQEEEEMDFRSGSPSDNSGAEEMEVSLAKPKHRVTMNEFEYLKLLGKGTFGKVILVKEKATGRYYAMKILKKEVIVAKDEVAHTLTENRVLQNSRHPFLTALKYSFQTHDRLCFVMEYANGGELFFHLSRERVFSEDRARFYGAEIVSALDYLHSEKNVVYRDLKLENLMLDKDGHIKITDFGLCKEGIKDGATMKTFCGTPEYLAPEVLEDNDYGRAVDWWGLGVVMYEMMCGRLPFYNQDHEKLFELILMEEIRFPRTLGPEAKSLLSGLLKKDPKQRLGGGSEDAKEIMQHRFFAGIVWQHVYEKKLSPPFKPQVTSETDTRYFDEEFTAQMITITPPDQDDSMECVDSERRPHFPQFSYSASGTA
Procedure: A TTP Mosquito liquid handling instrument is used to place 125n1 of the appropriate concentration of inhibitor in 100% DMSO (for a dose response curve calculation) into each well of a 384-well plate.
The reaction is incubated for 90 min at 25 C, and then stopped by the addition of 70 μl of Stop buffer (100 mM HEPES pH 7.5, 0.015% Brij-35, 10 mM EDTA (Sigma, E7889)).
The plate is read on a Caliper LC 3000 in an Off-Chip mobility shift assay format, using the following parameters for a 12-sipper chip: screening pressure −2.3 psi, upstream voltage −500, and downstream voltage −3000. These conditions cause unphosphorylated substrate and phosphorylated product peptide to resolve as separate peaks allowing direct measurement of percentage of conversion of substrate to product. The percent conversion can be plotted against concentration of inhibitor to produce a sigmoidal dose response curve, from which an IC50 can be calculated.

Sequence of P70S6K (T412E mutant) (P23443 whole entry T412E): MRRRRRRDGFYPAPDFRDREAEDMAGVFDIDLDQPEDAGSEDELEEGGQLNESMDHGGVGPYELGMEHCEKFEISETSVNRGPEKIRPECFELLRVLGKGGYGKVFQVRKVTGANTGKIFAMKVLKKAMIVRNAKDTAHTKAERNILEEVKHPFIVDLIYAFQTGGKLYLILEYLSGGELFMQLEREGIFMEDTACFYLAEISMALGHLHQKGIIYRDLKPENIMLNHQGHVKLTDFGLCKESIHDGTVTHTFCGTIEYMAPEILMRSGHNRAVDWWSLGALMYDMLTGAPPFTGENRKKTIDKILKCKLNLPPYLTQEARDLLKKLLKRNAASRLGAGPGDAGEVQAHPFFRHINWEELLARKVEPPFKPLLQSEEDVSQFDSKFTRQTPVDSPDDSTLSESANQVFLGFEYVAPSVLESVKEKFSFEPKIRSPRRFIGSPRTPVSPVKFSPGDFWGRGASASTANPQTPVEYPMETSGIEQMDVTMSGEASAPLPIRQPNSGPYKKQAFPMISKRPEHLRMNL

Row | Compound | IC50 (P70S6K (T412E mutant)) [nM] | IC50 (His-AKT (Full Length)) [nM]
1 | Cn1cc(-c2ccc(F)c(C(F)(F)F)c2)nc1C1CCN(c2ncncc2Br)CC1 [Compound 41, 5-Bromo-4-{4-[4-(4-fluoro-3-trifluoromethyl-phenyl)-1-methyl-1H-imidazol-2-yl]-piperidin-1-yl}-pyrimidine] | 3 | 1400
2 | Nc1ncnc(N2CCC(c3nc(-c4ccc(F)c(C(F)(F)F)c4)cn3CCN3CCCC3)CC2)c1Br [Compound 56] | 3.5 | 14
3 | Nc1ncnc(N2CCC(c3nc(-c4ccc(F)c(C(F)(F)F)c4)cn3CCN3CCCC3)CC2)c1-c1ccc(F)cc1 [Compound 57] | 8.2 | 140
4 | Nc1ncnc(N2CCC(c3nc(-c4ccc(F)c(C(F)(F)F)c4)cn3CCN3CCCC3)CC2)c1-c1ccccc1F [Compound 58] | 3.7 | 75
5 | Nc1ncnc(N2CCC(c3nc(-c4ccc(F)c(C(F)(F)F)c4)cn3CCN3CCCC3)CC2)c1-c1ccc(F)c(F)c1 [Compound 59] | 9.6 | 110
6 | Nc1ncnc(N2CCC(c3nc(-c4ccc(F)c(C(F)(F)F)c4)cn3CCN3CCCCC3)CC2)c1-c1ccc(F)cc1 [Compound 62] | 18 | 350
7 | Nc1ncnc(N2CCC(c3nc(-c4ccc(F)c(C(F)(F)F)c4)cn3CCN3CCCCC3)CC2)c1-c1ccccc1F [Compound 63] | 5.1 | 130
8 | Nc1ncnc(N2CCC(c3nc(-c4ccc(F)c(C(F)(F)F)c4)cn3CCN3CCCCC3)CC2)c1-c1cccc(F)c1 [Compound 64] | 8.7 | 85
9 | C=Cc1c(N)ncnc1N1CCC(c2nc(-c3ccc(F)c(C(F)(F)F)c3)cn2CCN2CCCCC2)CC1 [Compound 65, 6-{4-[4-(4-Fluoro-3-trifluoromethyl-phenyl)-1-(2-piperidin-1-yl-ethyl)-1H-imidazol-2-yl]-piperidin-1-yl}-5-vinyl-pyrimidin-4-ylamine] | 5.5 | 12
10 | Nc1cc(N2CCC(c3nc(-c4ccc(F)c(C(F)(F)F)c4)cn3CCN3CCCCC3)CC2)ncn1 [Compound 66] | 110 | 410
11 | CN(C)CCn1cc(-c2ccc(F)c(C(F)(F)F)c2)nc1C1CCN(c2ncnc(N)c2-c2ccc(F)cc2)CC1 [Compound 68, 6-{4-[1-(2-Dimethylamino-ethyl)-4-(4-fluoro-3-trifluoromethyl-phenyl)-1H-imidazol-2-yl]-piperidin-1-yl}-5-(4-fluoro-phenyl)-pyrimidin-4-ylamine] | 7.3 | 230
12 | CN(C)CCn1cc(-c2ccc(F)c(C(F)(F)F)c2)nc1C1CCN(c2ncnc(N)c2-c2ccncc2)CC1 [Compound 69, 6-{4-[1-(2-Dimethylamino-ethyl)-4-(4-fluoro-3-trifluoromethyl-phenyl)-1H-imidazol-2-yl]-piperidin-1-yl}-5-pyridin-4-yl-pyrimidin-4-ylamine] | 3 | 43
13 | CN(C)CCn1cc(-c2ccc(F)c(C(F)(F)F)c2)nc1C1CCN(c2ncnc(N)c2-c2cnc(N)nc2)CC1 [Compound 71, 6′-{4-[1-(2-Dimethylamino-ethyl)-4-(4-fluoro-3-trifluoromethyl-phenyl)-1H-imidazol-2-yl]-piperidin-1-yl}-[5,5′]bipyrimidinyl-2,4′-diamine] | 5.6 | 450
14 | C=C(C)c1c(N)ncnc1N1CCC(c2nc(-c3ccc(F)c(C(F)(F)F)c3)cn2CCN(C)C)CC1 [Compound 72, 6-{4-[1-(2-Dimethylamino-ethyl)-4-(4-fluoro-3-trifluoromethyl-phenyl)-1H-imidazol-2-yl]-piperidin-1-yl}-5-isopropenyl-pyrimidin-4-ylamine] | 5 | 15
15 | N#Cc1c(N)ncnc1N1CCC(c2nc(C3CCCCC3)cn2CCN2CCC2)CC1 [Compound 77, 4-Amino-6-{4-[1-(2-azetidin-1-yl-ethyl)-4-cyclohexyl-1H-imidazol-2-yl]-piperidin-1-yl}-pyrimidine-5-carbonitrile] | 6 | 76

Now those with a lower IC50 (P70S6K (T412E mutant)), led by results:

Row | IC50 (P70S6K (T412E mutant)) [nM] | IC50 (His-AKT (Full Length)) [nM] | Compound
16 | 1.7 | 600 | Nc1ncnc(N2CCC(c3nc(-c4ccc(F)c(C(F)(F)F)c4)c[nH]3)CC2)c1Br [Compound 43, 5-Bromo-6-{4-[4-(4-fluoro-3-trifluoromethyl-phenyl)-1H-imidazol-2-yl]-piperidin-1-yl}-pyrimidin-4-ylamine]
17 | 2.4 | 9500 | Nc1ncnc(N2CCC(c3nc(-c4ccc(F)c(C(F)(F)F)c4)c[nH]3)CC2)c1-c1ccc(F)cc1 [Compound 44, 5-(4-Fluoro-phenyl)-6-{4-[4-(4-fluoro-3-trifluoromethyl-phenyl)-1H-imidazol-2-yl]-piperidin-1-yl}-pyrimidin-4-ylamine]
18 | 2.7 | 440 | Cn1cc(-c2ccc(F)c(C(F)(F)F)c2)nc1C1CCN(c2ncnc(N)c2-c2cncnc2)CC1 [Compound 48, 6-{4-[4-(4-Fluoro-3-trifluoromethyl-phenyl)-1-methyl-1H-imidazol-2-yl]-piperidin-1-yl}-[5,5′]bipyrimidinyl-4-ylamine]
19 | 2.3 | 880 | Cn1cc(-c2ccc(F)c(C(F)(F)F)c2)nc1C1CCN(c2ncnc(N)c2-c2cccnc2)CC1 [Compound 53, 6-{4-[4-(4-Fluoro-3-trifluoromethyl-phenyl)-1-methyl-1H-imidazol-2-yl]-piperidin-1-yl}-5-pyridin-3-yl-pyrimidin-4-ylamine]
20 | 2.5 | 740 | COC/C=C/c1c(N)ncnc1N1CCC(c2nc(-c3ccc(F)c(C(F)(F)F)c3)cn2C)CC1 [Compound 54, 6-{4-[4-(4-Fluoro-3-trifluoromethyl-phenyl)-1-methyl-1H-imidazol-2-yl]-piperidin-1-yl}-5-((E)-3-methoxy-propenyl)-pyrimidin-4-ylamine]
21 | 2.1 | 850 | Cc1ncc(-c2c(N)ncnc2N2CCC(c3nc(-c4ccc(F)c(C(F)(F)F)c4)cn3C)CC2)s1 [Compound 55, 6-{4-[4-(4-Fluoro-3-trifluoromethyl-phenyl)-1-methyl-1H-imidazol-2-yl]-piperidin-1-yl}-5-(2-methyl-thiazol-5-yl)-pyrimidin-4-ylamine]
22 | 2.5 | 6.8 | C=Cc1c(N)ncnc1N1CCC(c2nc(-c3ccc(F)c(C(F)(F)F)c3)cn2CCN2CCCC2)CC1 [Compound 60]
23 | 2.8 | 9 | Nc1ncnc(N2CCC(c3nc(-c4ccc(F)c(C(F)(F)F)c4)cn3CCN3CCCCC3)CC2)c1Br [Compound 61, 5-Bromo-6-{4-[4-(4-fluoro-3-trifluoromethyl-phenyl)-1-(2-piperidin-1-yl-ethyl)-1H-imidazol-2-yl]-piperidin-1-yl}-pyrimidin-4-ylamine]
24 | 2.2 | 9.3 | CN(C)CCn1cc(-c2ccc(F)c(C(F)(F)F)c2)nc1C1CCN(c2ncnc(N)c2Br)CC1 [Compound 67, 5-Bromo-6-{4-[1-(2-dimethylamino-ethyl)-4-(4-fluoro-3-trifluoromethyl-phenyl)-1H-imidazol-2-yl]-piperidin-1-yl}-pyrimidin-4-ylamine]
25 | 2.7 | 7.9 | C=Cc1c(N)ncnc1N1CCC(c2nc(-c3ccc(F)c(C(F)(F)F)c3)cn2CCN(C)C)CC1 [Compound 73, 6-{4-[1-(2-Dimethylamino-ethyl)-4-(4-fluoro-3-trifluoromethyl-phenyl)-1H-imidazol-2-yl]-piperidin-1-yl}-5-vinyl-pyrimidin-4-ylamine]
26 | 1.2 | 2.6 | N#Cc1c(N)ncnc1N1CCC(c2nc(-c3ccc(F)c(C(F)(F)F)c3)cn2CCN2CCC2)CC1 [Compound 74, 4-Amino-6-{4-[1-(2-azetidin-1-yl-ethyl)-4-(4-fluoro-3-trifluoromethyl-phenyl)-1H-imidazol-2-yl]-piperidin-1-yl}-pyrimidine-5-carbonitrile]
27 | 1 | 1.9 | N#Cc1c(N)ncnc1N1CCC(c2nc(-c3ccc(F)c(Cl)c3)cn2CCN2CCC2)CC1 [Compound 75, 4-Amino-6-{4-[1-(2-azetidin-1-yl-ethyl)-4-(3-chloro-4-fluoro-phenyl)-1H-imidazol-2-yl]-piperidin-1-yl}-pyrimidine-5-carbonitrile]
28 | 2.1 | 479 | N#Cc1c(N)ncnc1N1CCC(c2nc(-c3ccc(OC(F)F)cc3)cn2CCN2CCC2)CC1 [Compound 76, 4-Amino-6-{4-[1-(2-azetidin-1-yl-ethyl)-4-(4-difluoromethoxy-phenyl)-1H-imidazol-2-yl]-piperidin-1-yl}-pyrimidine-5-carbonitrile]
29 | 2 | 14 | NC(=O)c1c(N)ncnc1N1CCC(c2nc(-c3ccc(F)c(C(F)(F)F)c3)cn2CCN2CCC2)CC1 [Compound 78, 4-Amino-6-{4-[1-(2-azetidin-1-yl-ethyl)-4-(4-fluoro-3-trifluoromethyl-phenyl)-1H-imidazol-2-yl]-piperidin-1-yl}-pyrimidine-5-carboxylic acid amide]
30 | 0.9 | 7.5 | NC(=O)c1c(N)ncnc1N1CCC(c2nc(-c3ccc(F)c(Cl)c3)cn2CCN2CCC2)CC1 [Compound 79, 4-Amino-6-{4-[1-(2-azetidin-1-yl-ethyl)-4-(3-chloro-4-fluoro-phenyl)-1H-imidazol-2-yl]-piperidin-1-yl}-pyrimidine-5-carboxylic acid amide]
